Measured values taken from patent US7259271B2, “Peripherally-selective inhibitors of dopamine-β-hydroxylase and method of their preparation” (Portela & C.A., S.A., priority 2002, dated 2007).
Counter-ions that a name gives are not always drawn.

Target: T1, human DβH (Homo sapiens, UniProt P09172)
T1 construct: SK-N-SH cells (ATCC HTB-11), a human neuroblastoma derived cell line, were used as a source of human DβH; host or cells: SK-N-SH cells
T1 sequence (P09172 1-617): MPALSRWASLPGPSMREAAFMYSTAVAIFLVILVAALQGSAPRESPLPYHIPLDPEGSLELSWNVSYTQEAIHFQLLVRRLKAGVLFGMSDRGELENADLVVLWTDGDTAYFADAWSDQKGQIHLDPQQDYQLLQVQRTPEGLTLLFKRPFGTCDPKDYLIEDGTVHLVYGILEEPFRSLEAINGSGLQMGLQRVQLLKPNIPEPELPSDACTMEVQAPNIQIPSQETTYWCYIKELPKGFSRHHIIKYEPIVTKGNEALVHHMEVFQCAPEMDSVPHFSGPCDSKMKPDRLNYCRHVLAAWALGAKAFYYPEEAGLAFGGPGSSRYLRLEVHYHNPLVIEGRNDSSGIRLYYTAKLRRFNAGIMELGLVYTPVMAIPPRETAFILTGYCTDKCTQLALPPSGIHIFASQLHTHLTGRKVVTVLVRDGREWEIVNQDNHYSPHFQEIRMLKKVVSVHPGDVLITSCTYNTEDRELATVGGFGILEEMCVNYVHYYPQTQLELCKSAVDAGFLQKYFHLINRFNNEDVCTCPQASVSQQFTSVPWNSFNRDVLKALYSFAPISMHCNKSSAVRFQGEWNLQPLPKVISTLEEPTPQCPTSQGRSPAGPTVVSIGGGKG
Test: DβH activity (β-hydroxylation of dopamine to noradrenaline) in SK-N-SH cells
Type: cell-based
Conditions: for DβH activity in SK-N-SH cells, Mean ± SEM: compound 5 μM, 50 mM dopamine; for inhibition of DβH activity (in words): 5 μM, as listed in Table 1; for remaining activity at 5 µM: SK-N-SH, 0.75 h, read-out: DβH activity in SK-N-SH cells, Mean ± SEM; for IC50 values against human DβH activity (in words): concentration-dependent decrease in β-hydroxylation of dopamine; for IC50: read-out: IC50 for inhibition of DβH in SK-N-SH cells
Description: SK-N-SH cells (ATCC HTB-11), a human neuroblastoma derived cell line, were used as a source of human DβH. SK-N-SH cells cultured in 24 well plates were preincubated for 20 min in a reaction medium containing 200 mM sodium acetate, 30 mM N-ethylmaleimide, 5 μM copper sulphate, 0.5 mg/ml catalase aqueous solution, 1 mM pargyline, 10 mM sodium fumarate and 20 mM ascorbic acid. […] During preincubation and incubation, the cells were continuously shaken and maintained at 37° C. The reaction was terminated by the addition of 0.2 M perchloric acid. The acidified samples were stored at 4° C. before injection into the high pressure liquid chromatograph for the assay of noradrenaline.

SMILES	inhibition of DβH activity (in words)	remaining activity at 5 µM	also measured
COc1ccc2c(c1)C[C@@H](n1c(CCN)c[nH]c1=S)CS2.Cl (racemic) [Compound 30, (R,S)-5-(2-aminoethyl)-1-(6-methoxythiochroman-3-yl)-1,3-droimidazole-2-thione hydrochloride]			DβH activity in SK-N-SH cells, Mean ± SEM: 99.4 ± 2.8 % of control
Cl.NCCc1c[nH]c(=S)n1[C@H]1CSc2ccc(O)cc2C1 (racemic) [Compound 31, (R,S)-5-(2-aminoethyl)-1-(6-hydroxythiochroman-3-yl)-1,3-dihydroimidazole-2-thione hydrochloride]			DβH activity in SK-N-SH cells, Mean ± SEM: 27.3 ± 0.4 % of control
Cl.NCCc1c[nH]c(=S)n1[C@H]1CCc2c(F)cc(F)cc2C1 [Compound 2, (S)-5-(2-aminoethyl)-1-(5,7-difluoro-1,2,3,4-tetrahydronaphthalen-2-yl)-1,3-dihydroimidazole-2-thione hydrochloride]	markedly inhibit	1.6 ± 0.3%	IC50 values against human DβH activity (in words): low nM range; IC50: 60 nM
Cl.NCc1c[nH]c(=S)n1[C@H]1COc2c(F)cc(F)cc2C1 [Compound 3, (R)-5-aminomethyl-1-(6,8-difluorochroman-3-yl)-1,3-dihydroimidazole-2-thione hydrochloride]	markedly inhibit	4.1 ± 0.6%	IC50 values against human DβH activity (in words): low nM range; IC50: 91 nM
Cl.NCCCc1c[nH]c(=S)n1[C@H]1CCc2c(F)cc(F)cc2C1 [Compound 5, (S)-5-(3-aminopropyl)-1-(5,7-difluoro-1,2,3,4-tetrahydronaphthalen-2-yl)-1,3-dihydroimidazole-2-thione hydrochloride]	markedly inhibit	8.1 ± 0.3%	
Cl.NCCc1c[nH]c(=S)n1[C@H]1COc2c(F)cccc2C1 [Compound 6, (R)-5-(2-aminoethyl)-1-(8-fluorochroman-3-yl)-1,3-dihydroimidazole-2-thione hydrochloride]	markedly inhibit	6.9 ± 0.6%	
Cl.NCCc1c[nH]c(=S)n1[C@H]1COc2ccc(F)cc2C1 [Compound 7, (R)-5-(2-aminoethyl)-1-(6-fluorochroman-3-yl)-1,3-dihydroimidazole-2-thione hydrochloride]	markedly inhibit	8 ± 0.1%	
Cl.NCCc1c[nH]c(=S)n1[C@H]1COc2cc(F)c(F)cc2C1 [Compound 8, (R)-5-(2-aminoethyl)-1-(6,7-difluorochroman-3-yl)-1,3-dihydroimidazole-2-thione hydrochloride]	markedly inhibit	9.4 ± 0.7%	
NCCc1c[nH]c(=S)n1[C@@H]1COc2c(F)cc(F)cc2C1 [Compound 9, (S)-5-(2-aminoethyl)-1-(6,8-difluorochroman-3-yl)-1,3-dihydroimidazole-2-thione hydrochloride]		50.2 ± 1.9%	
Cl.NCCc1c[nH]c(=S)n1[C@H]1COc2c(cc(F)c(F)c2F)C1 [Compound 10, (R)-5-(2-aminoethyl)-1-(6,7,8-trifluorochroman-3-yl)-1,3-dihydroimidazole-2-thione hydrochloride]	markedly inhibit	8.2 ± 0.7%	
COc1cc(Cl)cc2c1OC[C@H](n1c(CCN)c[nH]c1=S)C2 [Compound 11, (R)-5-(2-aminoethyl)-1-(6-chloro-8-methoxychroman-3-yl)-1,3-dihydroimidazole-2-thione hydrochloride]		36.7 ± 4.4%	
Cl.NCCc1c[nH]c(=S)n1[C@H]1COc2ccccc2C1 [Compound 12, (R)-5-(2-aminoethyl)-1-chroman-3-yl-1,3-dihydroimidazole-2-thione hydrochloride]	markedly inhibit	3 ± 0.5%	
COc1cc(Cl)c2c(c1)C[C@@H](n1c(CCN)c[nH]c1=S)CO2 [Compound 13, (R)-5-(2-aminoethyl)-1-(6-methoxy-8-chlorochroman-3-yl)-1,3-dihydroimidazole-2-thione hydrochloride]		94 ± 3.1%	
CC(=O)Nc1ccc2c(c1)C[C@@H](n1c(CCN)c[nH]c1=S)CO2 [Compound 14, (R)-5-(2-aminoethyl)-1-[6-(acetylamino)chroman-3-yl]-1,3-dihydroimidazole-2-thione hydrochloride]		77.9 ± 2.2%	
NCCc1c[nH]c(=S)n1[C@H]1COc2cc(Cc3ccccc3)c(O)cc2C1 [Compound 15, (R)-5-(2-aminoethyl)-1-(6-hydroxy-7-benzylchroman-3-yl)-1,3-dihydroimidazole-2-thione hydrochloride]		86.1 ± 2.7%	
Cl.NCCc1c[nH]c(=S)n1[C@H]1COc2ccc(O)cc2C1 [Compound 16, (R)-5-(2-aminoethyl)-1-(6-hydroxychroman-3-yl)-1,3-dihydroimidazole-2-thione hydrochloride]	markedly inhibit	0%	
NCCc1c[nH]c(=S)n1[C@H]1COc2c(cccc2[N+](=O)[O-])C1 [Compound 17, (R)-5-(2-aminoethyl)-1-(8-nitrochroman-3-yl)-1,3-dihydroimidazole-2-thione hydrochloride]		53.2 ± 3.9%	
NCCc1c[nH]c(=S)n1[C@H]1COc2ccc([N+](=O)[O-])cc2C1 [Compound 18, (R)-5-(2-aminoethyl)-1-(6-nitrochroman-3-yl)-1,3-dihydroimidazole-2-thione hydrochloride]		94.8 ± 1.2%	
COc1cccc2c1OC[C@H](n1c(CCN)c[nH]c1=S)C2.Cl [Compound 19, (R)-5-(2-aminoethyl)-1-(8-methoxychroman-3-yl)-1,3-dihydroimidazole-2-thione hydrochloride]	markedly inhibit	6.9 ± 0.5%	
NCCc1c[nH]c(=S)n1[C@H]1CCc2ccccc2C1 [Compound 20, (S)-5-(2-aminoethyl)-1-(1,2,3,4-tetrahydronaphthalen-2-yl)-1,3-dihydroimidazole-2-thione hydrochloride]		16.8 ± 4.8%	
NCCc1c[nH]c(=S)n1[C@H]1COc2c(O)cccc2C1 [Compound 21, (R)-5-(2-aminoethyl)-1-(8-hydroxychroman-3-yl)-1,3-dihydroimidazole-2-thione hydrochloride]		125 ± 6.5%	
NCc1c[nH]c(=S)n1[C@H]1COc2ccc(O)cc2C1 [Compound 22, (R)-5-aminomethyl-1-(6-hydroxychroman-3-yl)-1,3-dihydroimidazole-2-thione hydrochloride]		17.8 ± 2.1%	
COc1ccc2c(c1)C[C@@H](n1c(CCN)c[nH]c1=S)CO2 [Compound 23, (R)-5-(2-aminoethyl)-1-(6-methoxychroman-3-yl)-1,3-dihydroimidazole-2-thione hydrochloride]		54.5 ± 9.9%	
Cl.NCc1c[nH]c(=S)n1[C@H]1COc2ccccc2C1 [Compound 24, (R)-5-aminomethyl-1-chroman-3-yl-1,3-dihydroimidazole-2-thione hydrochloride]	markedly inhibit	0%	
COc1ccc2c(c1)C[C@@H](n1c(CCNCc3ccccc3)c[nH]c1=S)CO2 [Compound 25, (R)-5-(2-Benzylaminoethyl)-1-(6-methoxychroman-3-yl)-1,3-dihydroimidazole-2-thione hydrochloride]		66 ± 4.5%	
Cl.Oc1ccc2c(c1)C[C@@H](n1c(CCNCc3ccccc3)c[nH]c1=S)CO2 [Compound 26, (R)-5-(2-Benzylaminoethyl)-1-(6-hydroxychroman-3-yl)-1,3-dihydroimidazole-2-thione hydrochloride]	markedly inhibit	4.5 ± 1.9%	
CNCCc1c[nH]c(=S)n1[C@H]1COc2ccc(O)cc2C1 [Compound 27, (R)-1-(6-Hydroxychroman-3-yl)-5-(2-methylaminoethyl)-1,3-dihydroimidazole-2-thione hydrochloride]		15.5 ± 5.8%	
CNCCc1c[nH]c(=S)n1[C@H]1COc2c(F)cc(F)cc2C1.Cl [Compound 28, (R)-1-(6,8-Difluorochroman-3-yl)-5-(2-methylaminoethyl)-1,3-dihydroimidazole-2-thione hydrochloride]	markedly inhibit	2.6 ± 1.6%	
CNCCc1c[nH]c(=S)n1[C@H]1COc2ccccc2C1.Cl [Compound 29, (R)-1-Chroman-3-yl-5-(2-methylaminoethyl)-1,3-dihydroimidazole-2-thione hydrochloride]	markedly inhibit	2.2 ± 2.5%	
